Tests used:
[1] = tested on: T47D cells; assay: Inhibitory effects on the proliferation of T47D cells (CellTiter-Glo); assay type: cell-based; details: Homo sapiens, 168 h, 7 days
Method in brief: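 T47D cells (1000/well, RPMI 1640 + 10% FBS) cultured 24 h, then exposed 7 days at 37 °C to 9 compound concentrations, 3-fold dilutions from 10 μM final. Viability by CellTiter-Glo luminescence; IC50 derived.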

[2] = tested on: MDA-MB-453 cells; assay: Pharmacodynamic evaluation in NOD SCID mouse model with subcutaneous xenograft tumor of MDA-MB-453 cells; assay type: in vivo; details: oral, twice a day
Description: Experimental Example 6: Pharmacodynamic Evaluation of the Compound According to the Present Invention in NOD SCID Mouse Model with Subcutaneous Xenograft Tumor of MDA-MB-453 Cells
MDA-MB-453 cell lines were cultured in Leibovitz's L-15 medium+10% fetal bovine serum+1% […] at 37° C. under 5% CO2, and passaged once a week. When the cell saturation was between 80% and 90%, and the required quantity was reached, the cells were collected, counted, and inoculated.
When the number of cells in the logarithmic growth phase reached the required amount for the experiment, the cells were collected, and centrifuged at 1000 rpm for 5 minutes to remove the supernatant. The cells were resuspended in the medium, and counted using a cell counter. Based on the counting results, the original solution was diluted to obtain cell suspension at a concentration of 1*10^8 cells/mL. The cell viability was 94.55%, P14 generation. The diluted cell suspension and matrix gel were diluted in a 1:1 ratio, and after mixing, placed on ice. a 1 mL sterile syringe was used to transfer the suspension. 0.2 mL of cell suspension was subcutaneously inoculated into the right axilla of each mouse. Each mouse was inoculated with 1*10^7 MDA-MB-453 cells.
After inoculation, the tumor growth state was observed daily. When the average volume reached about 157.14 mm^3, mice were randomly divided into groups based on tumor size and body weight for administration. The same dose of solvent was given to the control group. The day on which tumor cells were inoculated was defined as Day 0.
The health and mortality status of animals was daily monitored, including tumor growth, activity ability, diet, weight, eyes, hair, and other abnormal behaviors. Body weight was measured daily, while tumor volume was measured twice a week. The tumor volume was measured using a vernier caliper, and the formula is TV=0.5 a×b^2, wherein a is the long diameter of the tumor, and b is the short diameter of the tumor. After reaching the experimental endpoint, plasma samples were collected from each group at pre-determined time points for determining the plasma concentration. After euthanizing mice, tumors were collected, photographed, weighed, and frozen.
Relative tumor proliferation rate, T/C (%), refers to the percentage ratio of tumor volume or weight between the treatment group and the control group at a certain time point. The calculation formula is: T/C %=TRTV/CRTV×100%
wherein, TRTV: the average relative tumor volume (RTV) of the treatment group; CRTV: the average relative tumor volume of the control group; (RTV): RTV=Vt/V0, V0 is the tumor volume of the animal at the time of grouping, and Vt is the tumor volume of the animal after treatment. […]

IC50 [1] [nM] | SMILES | TGI % after administrating for 21 days ([2]; 25 mg/kg) [%] | TGI % after administrating for 21 days ([2]; 75 mg/kg) [%]
< 1000 | Cc1cc([C@@H](C)Nc2ccc(Cl)nc2C(=O)O)c2nc(-c3ccc(F)cn3)n(C)c(=O)c2c1 [Compound 66, (R)-6-chloro-3-((1-(2-(5-fluoropyridin-2-yl)-3,6-dimethyl-4-oxo-3,4-dihydroquinazolin-8-yl)ethyl)amino)pyridinecarboxylic Acid] | 71 | 87
< 1000 | C[C@@H](Nc1ccc(Cl)nc1C(=O)O)c1cc(F)cc2c(=O)n(C)c(-c3ccc(F)cn3)nc12 [Compound 74] | 74 | 85

Reference: patent US20260015341A1, “PI3K INHIBITOR, PREPARATION METHOD THEREFOR, AND USE THEREOF” (HINOVA PHARMACEUTICALS INC., priority 2022, published 2026)
